Results on 23 molecules are retold here after ChEMBL document CHEMBL4041477, “Design, synthesis and biological evaluation of novel 2,3-dihydroquinazolin- 4(1H)-one derivatives as potential fXa inhibitors” (Eur J Med Chem, 2017).

For data set [1], the target named is Coagulation factor X (Homo sapiens, UniProt P00742). Put plainly: Inhibition of human factor 10a using substrate S-2765 preincubated for 30 mins followed by substrate addition measured after 20 mins by micro plate reader method.
Data set [2] deals with Plasma. Put plainly: Anticoagulant activity in rabbit plasma assessed as increase in prothrombin time after 10 mins by coagulometer. The class given is functional, Oryctolagus cuniculus.
Data set [3] deals with Plasma. Put plainly: Anticoagulant activity in rabbit plasma assessed as increase in activated partial thromboplastin time after 10 mins by coagulometer. The class given is functional, Oryctolagus cuniculus.
The subject of data set [4] is Rattus norvegicus. Put plainly: Toxicity in po dosed rat assessed as increase in tail bleeding time administered 60 mins prior to tail transection measured over 30 mins. The note with it: in vivo, 0.5 h. The class given is organism-based.
Data set [5] deals with Rattus norvegicus. Put plainly: Antithrombotic activity in rat model of arteriovenous shunt assessed as reduction in thrombus weight at 10 mg/kg, po administered 60 mins prior to shunt opening. The class given is functional, organism-based.
Data set [6] has as its target Prothrombin (Homo sapiens, UniProt P00734). Put plainly: Inhibition of human thrombin using substrate S-2238 preincubated for 30 mins followed by substrate addition measured after 20 mins by micro plate reader method.
Data set [7] concerns Rattus norvegicus. Put plainly: Antithrombotic activity in po dosed rat model of arteriovenous shunt assessed as reduction in thrombus weight administered 60 mins prior to shunt opening. In kind it is functional, organism-based.

pIC50: −log10 of the molar value.

Sequence of Coagulation factor X (P00742 41-179 limits assumed): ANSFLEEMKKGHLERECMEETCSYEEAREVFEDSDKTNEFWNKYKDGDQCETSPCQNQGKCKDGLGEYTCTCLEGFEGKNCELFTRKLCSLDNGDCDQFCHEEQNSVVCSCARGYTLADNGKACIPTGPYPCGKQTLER
Sequence of Coagulation factor X (P00742 235-488 limits assumed): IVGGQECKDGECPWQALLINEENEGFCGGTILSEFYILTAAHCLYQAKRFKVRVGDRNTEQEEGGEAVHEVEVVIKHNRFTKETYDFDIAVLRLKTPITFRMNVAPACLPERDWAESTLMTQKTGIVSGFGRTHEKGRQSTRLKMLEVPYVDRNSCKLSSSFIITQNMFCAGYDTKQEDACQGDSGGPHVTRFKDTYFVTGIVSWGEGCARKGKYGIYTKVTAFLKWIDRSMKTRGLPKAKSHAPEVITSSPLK

Regarding `COc1cccc(C(=O)N2CN(c3ccc(N4CCCCC4=O)cc3)C(=O)c3cc(OC)ccc32)c1`, the negative-log IC50 (pIC50) in data set [1] is 3.45.
On the same count and under the same terms, in the case of `COc1ccc2c(c1)C(=O)N(c1ccc(N3CCCCC3=O)cc1)CN2C(=O)Cc1cccc(Cl)c1` it was 6.27; in that of `COc1ccc2c(c1)C(=O)N(c1ccc(N3CCCCC3=O)cc1)CN2C(=O)Cc1ccc(NC(C)=O)cc1`, 6.63.
Same read-out and setting: the same measure for `COc1ccc(CC(=O)N2CN(c3ccc(N4CCCCC4=O)cc3)C(=O)c3cc(OC)ccc32)cc1`: 6.05.
Still for that read-out and setting: in the case of `COc1ccc(CC(=O)N2CN(c3ccc(N4CCCCC4=O)cc3)C(=O)c3cc(OC)ccc32)c(OC)c1` it was 5.90.
Take `COc1ccc(NC(=O)c2ccc(C(=N)N(C)C)cc2)c(C(=O)Nc2ccc(Cl)cn2)c1` [BETRIXABAN]: the 2PT in data set [2] was found to be 2.4 µM. Also, the 2aPTT in data set [3] turned out to be 1.1 µM. The Activity entry in data set [4] and in data set [5] was “Dose-dependent effect” throughout.
For the molecule `COc1ccc(CC(=O)N2CN(c3ccc(N4CCOCC4=O)cc3)C(=O)c3cc(OC)ccc32)cc1`, the negative logarithm of the IC50 (pIC50) in data set [1] was 6.14.
`COc1ccc2c(c1)C(=O)N(c1ccc(N3CCCCC3=O)cc1)CN2C(=O)c1ccccc1` gave a pIC50 in data set [1] of 3.26.
Still for that read-out and setting: in the case of `COc1ccc2c(c1)C(=O)N(c1ccc(N3CCOCC3=O)cc1)CN2C(=O)Cc1ccc(Cl)c(Cl)c1` it was 6.46.
The molecule `COc1ccc2c(c1)C(=O)N(c1ccc(N3CCCCC3=O)cc1)CN2C(=O)c1ccc(Cl)s1` had a pIC50 in data set [1] of 3.75.
Still for that read-out and setting: the same measure for `COc1ccc2c(c1)C(=O)N(c1ccc(N3CCOCC3=O)cc1)CN2C(=O)Cc1ccc(Cl)cc1Cl`: 6.30.
`COc1ccc2c(c1)C(=O)N(c1ccc(N3CCOCC3=O)cc1)CN2C(=O)Cc1ccc(Cl)s1`: the results for the negative logarithm of the IC50 (pIC50) in data set [1] and in data set [6] were 7.68 and 4.17, respectively. In addition, the 2PT in data set [2] amounted to 1.2 µM. In addition, the 2aPTT in data set [3] was determined as 0.6 µM. For the same molecule, the Activity entry in data set [7] and in data set [4] was “Dose-dependent effect” in each case.
In turn, `COc1ccc2c(c1)C(=O)N(c1ccc(N3CCCCC3=O)cc1)CN2C(=O)c1ccc(Cl)cc1` had a pIC50 in data set [1] of 4.28.
Still for that read-out and setting: the same measure for `COc1ccc2c(c1)C(=O)N(c1ccc(N3CCCCC3=O)cc1)CN2C(=O)Cc1ccc(Cl)cc1`: 6.90; for `COc1ccc2c(c1)C(=O)N(c1ccc(N3CCOCC3=O)cc1)CN2C(=O)Cc1ccc(Cl)cn1`: 6.80.
Still for that read-out and setting: the same measure for `COc1ccc2c(c1)C(=O)N(c1ccc(N3CCCCC3=O)cc1)CN2C(=O)Cc1ccccc1Cl`: 5.87; for `COc1ccc2c(c1)C(=O)N(c1ccc(-n3ccccc3=O)cc1)CN2C(=O)Cc1ccc(Cl)cc1`: 6.78.
Same read-out and setting: in the case of `COc1ccc2c(c1)C(=O)N(c1ccc(N3CCOCC3=O)cc1)CN2C(=O)c1ccc(CCl)cc1` it was 5.85; in that of `COc1ccc2c(c1)C(=O)N(c1ccc(N3CCCCC3=O)cc1)CN2C(=O)Cc1ccccc1`, 5.39; in that of `COc1ccc(C(=O)N2CN(c3ccc(N4CCCCC4=O)cc3)C(=O)c3cc(OC)ccc32)cc1`, 3.95.
Regarding `COc1ccc2c(c1)C(=O)N(c1ccc(N3CCOCC3=O)cc1)CN2C(=O)CCc1ccc(Cl)cc1`, in data set [1], the pIC50 is 5.66.
Same read-out and setting: the same measure for `COc1ccc2c(c1)C(=O)N(c1ccc(N3CCCCC3=O)cc1)CN2C(=O)c1cccc(Cl)c1`: 3.61.
In the case of `COc1ccc2c(c1)C(=O)N(c1ccc(N3CCOCC3=O)cc1)CN2C(=O)Cc1ccc(Cl)cc1`, the negative-log IC50 (pIC50) in data set [1] is 7.38; in data set [6] it was 4.09. The 2PT in data set [2] was 11.6 µM. Moreover, in data set [3], the 2aPTT worked out at 16.1 µM.
